Data set [1] has as its target T1, Acetylcholinesterase (Homo sapiens, UniProt P22303). The data set is described as follows: Inhibition of human erythrocyte AChE using acetylthiocholine iodide as substrate preincubated for 5 mins followed by substrate addition by DTNB based Ellman's method. (In general: Ellman's reagent forms a yellow product with free thiols.)
The next data set concerns the target Cholinesterase (Equus caballus, UniProt P81908). Put plainly: Inhibition of equine serum BuChE using butyrylthiocholine iodide as substrate preincubated for 5 mins followed by substrate addition by DTNB based Ellman's method.
The target in data set [2] is Acetylcholinesterase (Electrophorus electricus, UniProt O42275). The data set is described as follows: Inhibition of electric eel AChE using acetylthiocholine iodide as substrate preincubated for 5 mins followed by substrate addition by DTNB based Ellman's method.
Data set [3] is described as follows: Antioxidant activity assessed as ABTS radical scavenging activity incubated for 30 mins by spectrophotometric analysis. It is filed as functional.
For data set [4], the target named is Amyloid-beta precursor protein (Homo sapiens) (UniProt P05067). The data set is described as follows: Modulation of amyloid beta (1 to 42) (unknown origin) self aggregation assessed as increase in fluorescence intensity at 0.03 to 0.1 uM incubated for 24 hrs by Thioflavin T fluorescence assay. As to conditions: filed as modulator, dose 0.03-0.1 µM.
Data set [5] deals with SK-N-SH. Put plainly: Neuroprotective activity against H2O2 induced oxidative cell damage in human SK-N-SH cells assessed as increase in cell viability at 30 to 60 uM preincubated for 3 hrs followed by H2O2 stimulation for 2 hrs by MTT assay (Rvb= 40%). It is filed as functional, cell-based. As to conditions: dose 30-60 µM. (Formazan colour is commonly taken as a measure of viable cells.)

Data set [6] concerns the target T1, Acetylcholinesterase. Put plainly: Binding affinity to AChE (unknown origin) assessed as decrease in negative bands intensity towards the baseline at […] incubated for 5 mins by Circular dichroism analysis. As to conditions: dose lower 0.001 nM. On the technique in general: CD spectra are sensitive to the conformation of chiral molecules.
In data set [7] the target is T1, Acetylcholinesterase. Put plainly: Binding affinity to AChE (unknown origin) assessed as static fluorescence quenching at pH 7.2 at 0.001 to 0.009 mM incubated for 5 mins by Stern-Volmer quenching plot based fluorescence spectroscopy. As to conditions: dose 0.001-0.009 mM.
Data set [8] can be described thus: Cytotoxicity against human SK-N-SH cells assessed as cell viability at 30 to 60 uM incubated for 24 hrs by MTT assay. It is filed as toxicity, cell-based. As to conditions: dose 30-60 µM, read-out: Activity.
Data set [9] addresses Amyloid-beta precursor protein (Homo sapiens) (UniProt P05067). Put plainly: Modulation of amyloid beta (1 to 42) (unknown origin) assembly assessed as morphological changes in amyloid beta (1 to 42) aggregates at 1 mM incubated for 3 days by FE-SEM image analysis relative to control. As to conditions: filed as modulator, time 3.0 day.
The subject of a further data set is Supercoiled DNA. Put plainly: Induction of supercoiled pBR322 plasmid DNA (unknown origin) cleavage assessed as DNA nicking at 10 uM incubated for 2 hrs by Agarose gel electrophoresis analysis. The format is nucleic-acid assay.
In data set [10] the test system is SK-N-SH. The data set is described as follows: Neuroprotective activity against H2O2 induced oxidative cell damage in human SK-N-SH cells assessed as increase in cell viability at 90 uM preincubated for 3 hrs followed by H2O2 stimulation for 2 hrs by MTT assay (Rvb= 40%). It is filed as functional.
Data set [11] has as its target T1, Acetylcholinesterase. The data set is described as follows: Binding affinity to AChE (unknown origin) assessed as gibbs free energy change at temperature of 298 K at 0.001 to 0.009 mM incubated for 5 mins by fluorescence quenching analysis. As to conditions: dose 0.001-0.009 mM.
Data set [12] is described as follows: Cytotoxicity against human SK-N-SH cells assessed as cell viability at 90 uM incubated for 24 hrs by MTT assay. It is filed as toxicity, cell-based. As to conditions: read-out: Activity.
The target of data set [13] is T1, Acetylcholinesterase. Put plainly: Binding affinity to AChE (unknown origin) assessed as reduction in intrinsic fluorescence intensity at pH 7.2 at 0.001 to 0.009 mM incubated for 5 mins by fluorescence quenching analysis. As to conditions: dose 0.001-0.009 mM.
A short description of data set [14]: Selectivity ratio, ratio of IC50 for inhibition of equine serum BuChE to IC50 for inhibition of electric eel AChE.
Another data set relates to DNA. The data set is described as follows: Induction of pBR322 plasmid DNA (unknown origin) damage assessed as protection against Fenton's reagent induced DNA (unknown origin) damage by observing disappearance of band at 20 to 80 uM incubated for 30 mins by Agarose gel electrophoresis analysis. It is filed as nucleic-acid assay. As to conditions: dose 20-80 µM.

The source made the active and inactive calls. The rule behind the calls is not given here.

Amyloid-beta precursor protein (Homo sapiens), sequence (P05067 whole entry): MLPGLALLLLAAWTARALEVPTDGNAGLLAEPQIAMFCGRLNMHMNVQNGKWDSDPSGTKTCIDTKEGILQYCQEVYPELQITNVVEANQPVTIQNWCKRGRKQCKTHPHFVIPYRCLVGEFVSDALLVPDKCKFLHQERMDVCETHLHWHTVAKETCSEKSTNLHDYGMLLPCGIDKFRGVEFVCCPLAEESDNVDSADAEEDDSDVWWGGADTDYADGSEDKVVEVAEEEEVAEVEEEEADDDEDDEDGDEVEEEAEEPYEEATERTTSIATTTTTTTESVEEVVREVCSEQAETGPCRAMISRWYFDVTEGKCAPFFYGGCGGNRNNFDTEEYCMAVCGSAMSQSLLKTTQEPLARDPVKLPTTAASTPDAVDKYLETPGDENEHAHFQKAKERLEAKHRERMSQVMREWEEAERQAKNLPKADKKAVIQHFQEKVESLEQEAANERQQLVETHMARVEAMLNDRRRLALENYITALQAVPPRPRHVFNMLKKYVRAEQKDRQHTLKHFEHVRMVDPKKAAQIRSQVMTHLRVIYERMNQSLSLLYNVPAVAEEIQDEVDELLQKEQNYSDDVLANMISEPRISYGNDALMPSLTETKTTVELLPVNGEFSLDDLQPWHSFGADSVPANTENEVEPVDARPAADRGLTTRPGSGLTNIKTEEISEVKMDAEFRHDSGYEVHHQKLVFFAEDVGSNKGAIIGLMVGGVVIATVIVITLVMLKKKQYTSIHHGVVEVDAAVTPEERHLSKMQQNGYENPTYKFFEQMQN
Cholinesterase, sequence (P81908 whole entry): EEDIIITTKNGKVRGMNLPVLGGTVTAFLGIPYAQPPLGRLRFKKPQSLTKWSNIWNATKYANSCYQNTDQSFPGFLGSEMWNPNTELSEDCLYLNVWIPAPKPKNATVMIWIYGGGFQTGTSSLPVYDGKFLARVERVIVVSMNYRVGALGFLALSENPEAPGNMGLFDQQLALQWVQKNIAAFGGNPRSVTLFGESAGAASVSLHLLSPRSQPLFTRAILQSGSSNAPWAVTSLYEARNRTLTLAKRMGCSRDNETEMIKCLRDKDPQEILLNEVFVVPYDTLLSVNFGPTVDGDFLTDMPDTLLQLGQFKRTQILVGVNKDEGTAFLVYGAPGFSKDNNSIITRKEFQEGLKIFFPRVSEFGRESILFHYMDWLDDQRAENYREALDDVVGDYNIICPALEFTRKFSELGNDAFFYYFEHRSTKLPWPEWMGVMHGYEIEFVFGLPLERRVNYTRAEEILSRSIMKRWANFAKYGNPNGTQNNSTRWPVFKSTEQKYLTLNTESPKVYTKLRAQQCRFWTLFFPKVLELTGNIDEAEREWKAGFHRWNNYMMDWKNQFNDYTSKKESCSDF
T1 sequence (P22303 whole entry): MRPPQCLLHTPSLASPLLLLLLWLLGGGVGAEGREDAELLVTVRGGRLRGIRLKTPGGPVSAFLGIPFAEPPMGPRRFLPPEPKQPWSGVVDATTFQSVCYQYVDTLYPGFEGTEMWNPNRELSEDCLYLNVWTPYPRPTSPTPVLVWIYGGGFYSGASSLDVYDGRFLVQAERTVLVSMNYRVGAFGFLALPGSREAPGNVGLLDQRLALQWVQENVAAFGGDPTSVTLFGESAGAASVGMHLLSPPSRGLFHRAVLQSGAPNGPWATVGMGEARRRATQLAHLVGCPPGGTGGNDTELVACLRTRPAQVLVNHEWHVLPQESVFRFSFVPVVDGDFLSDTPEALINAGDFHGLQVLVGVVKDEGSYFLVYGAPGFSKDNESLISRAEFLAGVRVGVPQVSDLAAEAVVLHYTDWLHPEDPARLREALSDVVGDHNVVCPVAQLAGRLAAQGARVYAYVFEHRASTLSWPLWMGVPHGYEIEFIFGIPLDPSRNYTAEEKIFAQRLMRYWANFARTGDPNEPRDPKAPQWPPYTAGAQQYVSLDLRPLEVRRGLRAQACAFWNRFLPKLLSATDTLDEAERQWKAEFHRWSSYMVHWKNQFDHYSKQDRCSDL
Acetylcholinesterase (Electrophorus electricus, UniProt O42275), sequence (O42275 whole entry): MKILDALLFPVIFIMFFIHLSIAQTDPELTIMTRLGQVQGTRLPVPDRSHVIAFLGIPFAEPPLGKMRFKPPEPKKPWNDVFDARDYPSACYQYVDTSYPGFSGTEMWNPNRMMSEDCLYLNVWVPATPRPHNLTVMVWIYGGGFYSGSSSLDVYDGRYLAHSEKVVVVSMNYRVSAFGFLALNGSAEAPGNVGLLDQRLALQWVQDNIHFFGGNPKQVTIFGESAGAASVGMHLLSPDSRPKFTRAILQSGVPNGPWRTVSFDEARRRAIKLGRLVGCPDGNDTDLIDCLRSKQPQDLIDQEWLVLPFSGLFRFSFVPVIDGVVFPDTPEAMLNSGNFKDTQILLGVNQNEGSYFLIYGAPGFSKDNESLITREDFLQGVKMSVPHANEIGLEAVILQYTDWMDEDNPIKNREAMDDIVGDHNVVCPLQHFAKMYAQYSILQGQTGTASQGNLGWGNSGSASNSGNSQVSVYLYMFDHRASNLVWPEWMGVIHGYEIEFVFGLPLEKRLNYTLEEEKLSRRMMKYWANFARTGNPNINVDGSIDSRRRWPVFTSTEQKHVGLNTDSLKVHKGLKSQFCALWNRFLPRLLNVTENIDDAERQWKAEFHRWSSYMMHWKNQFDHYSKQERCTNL

A word on the IC50: it is the midpoint of a concentration-inhibition curve. With `CCOP(=O)(OCC)C(Nc1cccc(O)c1)c1ccc(OCc2nc3ccccc3c(=O)n2-c2ccc(F)cc2)c(OC)c1` (configuration not stated), the IC50 is 4.34 µM against Acetylcholinesterase [1], > 100 µM at Cholinesterase, 0.369 µM at Acetylcholinesterase [2] and 35.8 µM in data set [3].
In the case of `COc1ccc2c3c1O[C@H]1C[C@@H](O)C=C[C@@]31CCN(C)C2`, in data set [4], the Activity result is “Dose-Dependent Effect”.
As to `CCOP(=O)(OCC)C(Nc1ccccc1OC)c1ccc(OCc2nc3ccccc3c(=O)n2-c2ccc(F)cc2)c(OC)c1` (configuration not stated), the result (with SK-N-SH [5]; at Acetylcholinesterase [7]; in data set [9]; in data set [4]) was Active. Further, the IC50 on Acetylcholinesterase [1] stood at 2.65 µM; at Cholinesterase, 10.6 µM; at Acetylcholinesterase [2], 0.296 µM; in data set [3], 28.8 µM. Besides, the values for the Activity entry on Acetylcholinesterase [6], in the data set on SK-N-SH [10] and on Acetylcholinesterase [13] were “Dose-Dependent Effect”, 65% and “Dose-Dependent Effect”, respectively. The viability at 24 h, up to 60 µM in [8] is > 90%. For the same compound, in the data set with Supercoiled DNA, the outcome was inactive. For the same compound, the deltaG at Acetylcholinesterase [11] is -6.88 kcal/mol. Moreover, in data set [12], the viability at 24 h, 90 µM is 85%.
For `CCOP(=O)(OCC)C(Nc1ccccc1C(F)(F)F)c1ccc(OCc2nc3ccccc3c(=O)n2-c2ccc(F)cc2)c(OC)c1` (configuration not stated), the IC50 was 4.93 µM against Acetylcholinesterase [1], > 100 µM at Cholinesterase, 0.341 µM at Acetylcholinesterase [2] and 36.5 µM in [3].
In the case of `CCOP(=O)(OCC)C(Nc1ccccc1CC)c1ccc(OCc2nc3ccccc3c(=O)n2-c2ccc(F)cc2)c(OC)c1` (configuration not stated), the concentration for half-maximal inhibition (IC50) on Cholinesterase is 29.6 µM; against Acetylcholinesterase [2], 0.532 µM; in [3], > 50 µM. For the same compound, in data set [14], the Ratio IC50 stood at 55.7.
Take `CCOP(=O)(OCC)C(Nc1ccccc1)c1ccc(OCc2nc3ccccc3c(=O)n2-c2ccc(F)cc2)c(OC)c1` (configuration not stated): the figures for the IC50 (against Cholinesterase; on Acetylcholinesterase [2]; in data set [3]) were > 100 µM, 0.921 µM and > 50 µM, respectively.
With `CCOP(=O)(OCC)C(Nc1ccc(OC)cc1)c1ccc(OCc2nc3ccccc3c(=O)n2-c2ccc(F)cc2)c(OC)c1` (configuration not stated), the half-inhibitory concentration (IC50) was > 100 µM at Cholinesterase, 0.431 µM against Acetylcholinesterase [2] and 29 µM in data set [3].
With `CCOP(=O)(OCC)C(Nc1ccc(Cl)cc1)c1ccc(OCc2nc3ccccc3c(=O)n2-c2ccc(F)cc2)c(OC)c1` (configuration not stated), the IC50 is > 100 µM against Cholinesterase, 0.639 µM on Acetylcholinesterase [2] and 33.2 µM in data set [3].
`CCOP(=O)(OCC)C(Nc1ccccc1C#N)c1ccc(OCc2nc3ccccc3c(=O)n2-c2ccc(F)cc2)c(OC)c1` (configuration not stated): the IC50 at Acetylcholinesterase [1] came to 2.94 µM; on Cholinesterase, 11 µM; at Acetylcholinesterase [2], 0.322 µM; in [3] it was 39.4 µM. Also, the Ratio IC50 in data set [14] amounted to 34.2.
With `CCOP(=O)(OCC)C(Nc1ccccc1O)c1ccc(OCc2nc3ccccc3c(=O)n2-c2ccc(F)cc2)c(OC)c1` (configuration not stated), the IC50 is > 100 µM on Cholinesterase, 0.558 µM at Acetylcholinesterase [2] and 41.2 µM in [3].
`Cc1c(C)c2c(c(C)c1O)CCC(C)(C(=O)O)O2` (configuration not stated) [TROLOX]: in [3], the half-inhibitory concentration (IC50) came out at 25.1 µM.
As for `CCOP(=O)(OCC)C(Nc1cc(C)ccc1C)c1ccc(OCc2nc3ccccc3c(=O)n2-c2ccc(F)cc2)c(OC)c1` (configuration not stated), the half-inhibitory concentration (IC50) against Acetylcholinesterase [1] was 6.05 µM; against Cholinesterase, 18.7 µM; at Acetylcholinesterase [2], 0.414 µM; in data set [3] it was > 50 µM. Further, the Ratio IC50 in data set [14] stood at 45.1.
Turning to `CCOP(=O)(OCC)C(Nc1ccc([N+](=O)[O-])cc1)c1ccc(OCc2nc3ccccc3c(=O)n2-c2ccc(F)cc2)c(OC)c1` (configuration not stated), the IC50 on Acetylcholinesterase [1] is 1.78 µM; against Cholinesterase it was > 100 µM; against Acetylcholinesterase [2] it was 0.315 µM; in data set [3], 28 µM.
As for `CCOP(=O)(OCC)C(Nc1ccc(Br)cc1)c1ccc(OCc2nc3ccccc3c(=O)n2-c2ccc(F)cc2)c(OC)c1` (configuration not stated), the IC50 at Cholinesterase was > 100 µM; on Acetylcholinesterase [2], 0.487 µM; in data set [3], > 50 µM.
For `CCOP(=O)(OCC)C(Nc1nncs1)c1ccc(OCc2nc3ccccc3c(=O)n2-c2ccc(F)cc2)c(OC)c1` (configuration not stated), the half-inhibitory concentration (IC50) against Acetylcholinesterase [1] is 3.37 µM; on Cholinesterase, > 100 µM; on Acetylcholinesterase [2] it was 0.361 µM; in data set [3], > 50 µM.
Take `CCOP(=O)(OCC)C(Nc1cccc(Cl)c1Cl)c1ccc(OCc2nc3ccccc3c(=O)n2-c2ccc(F)cc2)c(OC)c1` (configuration not stated): the outcome (in the data set with SK-N-SH [5]; with DNA; at Acetylcholinesterase [7]; in [9]; in the data set with Supercoiled DNA; in [4]) was Active. The IC50 on Acetylcholinesterase [1] came out at 2.55 µM; against Cholinesterase, 23.3 µM; at Acetylcholinesterase [2], 0.306 µM; in [3], 29.3 µM. Further, the Activity entry at Acetylcholinesterase [6] is “Dose-Dependent Effect”; in the data set with SK-N-SH [10], 65%; at Acetylcholinesterase [13], “Dose-Dependent Effect”. In addition, in data set [8], the viability at 24 h, up to 60 µM was > 90%. For the same compound, in data set [14], the Ratio IC50 was determined as 76. Also, the deltaG at Acetylcholinesterase [11] is -6.94 kcal/mol. Besides, in data set [12], the viability at 24 h, 90 µM was determined as 85%.
With `CCOP(=O)(OCC)C(Nc1ccccc1C(C)=O)c1ccc(OCc2nc3ccccc3c(=O)n2-c2ccc(F)cc2)c(OC)c1` (configuration not stated), the IC50 on Acetylcholinesterase [1] came to 5.62 µM; against Cholinesterase it was 12.1 µM; against Acetylcholinesterase [2] it was 0.378 µM; in [3], 50 µM. In [14], the Ratio IC50 was found to be 31.9.
The like results for `CCOP(=O)(OCC)C(Nc1ccccc1C)c1ccc(OCc2nc3ccccc3c(=O)n2-c2ccc(F)cc2)c(OC)c1` (configuration not stated) were, in that order, 5.35 µM, 33.8 µM, 0.393 µM, > 50 µM and 86.
On to `CCOP(=O)(OCC)C(Nc1cc(C)cc(C)c1)c1ccc(OCc2nc3ccccc3c(=O)n2-c2ccc(F)cc2)c(OC)c1` (configuration not stated), for which the results for the IC50 (against Cholinesterase; on Acetylcholinesterase [2]; in data set [3]) were 26.4 µM, 0.465 µM and 46.2 µM, respectively. Moreover, the Ratio IC50 in data set [14] worked out at 56.8.
With `CCOP(=O)(OCC)C(Nc1ccccc1Br)c1ccc(OCc2nc3ccccc3c(=O)n2-c2ccc(F)cc2)c(OC)c1` (configuration not stated), the IC50 against Cholinesterase is > 100 µM; at Acetylcholinesterase [2], 0.473 µM; in data set [3], > 50 µM.
Turning to `CCOP(=O)(OCC)C(Nc1ccc(C)cc1)c1ccc(OCc2nc3ccccc3c(=O)n2-c2ccc(F)cc2)c(OC)c1` (configuration not stated), the values for the half-inhibitory concentration (IC50) (on Cholinesterase; against Acetylcholinesterase [2]; in data set [3]) were > 100 µM, 0.669 µM and 39.3 µM, respectively.
Consider `CCOP(=O)(OCC)C(Nc1ccc(F)cc1)c1ccc(OCc2nc3ccccc3c(=O)n2-c2ccc(F)cc2)c(OC)c1` (configuration not stated), for which the half-inhibitory concentration (IC50) against Cholinesterase was 35.4 µM; on Acetylcholinesterase [2], 0.805 µM; in [3], > 50 µM. The Ratio IC50 in data set [14] turned out to be 43.9.
As for `CCOP(=O)(OCC)C(Nc1c(C)cccc1C)c1ccc(OCc2nc3ccccc3c(=O)n2-c2ccc(F)cc2)c(OC)c1` (configuration not stated), the IC50 on Acetylcholinesterase [1] was 3.02 µM; at Cholinesterase it was > 100 µM; at Acetylcholinesterase [2] it was 0.353 µM; in data set [3], > 50 µM.

The values are drawn from ChEMBL document CHEMBL5360568, “Synthesis and anti-Alzheimer potential of novel α-amino phosphonate derivatives and probing their molecular interaction mechanism with acetylcholinesterase” (Eur J Med Chem, 2023).
